In series [1] the test system is mouse leukemia P388 and human gastric cancer cell line SGC-7901. The following applies: 0.01 μg/ml, in vitro; cited from earlier work.
Series [2] can be described thus: Example 5: body weight of tumor-bearing nude mice. The class given is in vivo, BALB/c-nu nude mice. The procedure: Under sterile conditions, the above tumor cells were collected in the logarithmic growth phase. A549 was injected by subcutaneous injection in an amount of 6×10 6/0.2 mL/nude mice (cell viability>90%) into the right subaxillary of the nude mice, thus establishing transplated tumor models of lung cancer in nude mice. The mice were administered from the second day after the inoculation. […] Each mouse was intragastrically administered in 0.4 ml each time and 2 times a day, at 8:00, and 14:00. The administrations were successive for 14 days. The day before administration was deemed as Day 0 and the body weight and tumor size of the mice were determined every 5 days to produce a dynamic plot on body weight and tumor growth. On Day 20, the mice were sacrificed and the tumors were taken out and weighed. The tumor inhibition rate (%) was calculated after the effect of the medicament based on a tumor inhibition rate of the control group being zero.
(§1) The values determined were presented as mean±standard error (Mean±SD). The experimental data for each group was analyzed with One-way ANOVA method in the SPSS 18.0 statistical software, and p<0.05 means that the differences are statistically significant.

Another series deals with leukemia mice. Particulars: cited from earlier work.
For series [3], the system named is Raji (human Burkitt lymphoma cells). Description: MTT cell viability, lymphoma and myeloma cells. The following applies: 72 h; for IC50: read-out: concentration (IC50 value of 72 hours). The class given is cell-based. The procedure:
(§2) Well-growing cells of above were obtained and inoculated into wells of a 96-well cell culture plate at 5000 cells/well. Separate compounds of various concentrations were added, mixed uniformly, and incubated (5% CO2) at 37° C. for 72 hours. Then the cell viability was determined by the MTT method.
(§3) b) Determine the inhibitory effects of TTD in combination with Ada A on the above cells. The pretreatment of the cells was the same as in a). The control group was not treated with the compound while administered. […] As to the combination group, two compounds were added together into the same group of wells, with the fmal concentrations being the concentrations to which the IC50 values of the two single drugs correspond. After 72 hours of incubation, the MTT method was used for the determination of cell viability. The cell viability of the control group was set to 100% in this experiment, and the TTD, Ada A single drug and combined effects on cell viability (%) were calculated.

Series [4] concerns RPMI 8226 (multiple myeloma). Nature of the series: MTT cell viability, lymphoma and myeloma cells. It is filed as cell-based. The following applies: Homo sapiens; for IC50: read-out: concentration (IC50 value of 72 hours). The procedure: as §2, §3
The conditions of series [5]: rats, cited from earlier work.
The subject of series [6] is leukemic cell lines L1210 and P388. The following applies: mice inoculated with L1210 and P388, 0.5-5 mg/kg/day for 10 consecutive days; cited from earlier work.
The test system of series [7] is acute lymphoblastic leukemia (ANLL). Particulars: initial treatment of ANLL; cited from earlier work.
The test system of series [8] is A549 transplanted tumor (human non-small cell lung cancer cell line). Description: Example 5: Acla A on A549 transplanted tumor in nude mice. It is filed as in vivo, BALB/c-nu nude mice. The procedure:
Under sterile conditions, the above tumor cells were collected in the logarithmic growth phase. A549 was injected by subcutaneous injection in an amount of 6×10 6/0.2 mL/nude mice (cell viability>90%) into the right subaxillary of the nude mice, thus establishing transplated tumor models of lung cancer in nude mice. The mice were administered from the second day after the inoculation. The experimental group was intragastrically administered at the experimentally designed amount, the negative control group was intragastrically administered with sterile water, and the positive control group is intragastrically administered with Jef. Each mouse was intragastrically administered in 0.4 ml each time and 2 times a day, at 8:00, and 14:00. The administrations were successive for 14 days. The day before administration was deemed as Day 0 and the body weight and tumor size of the mice were determined every 5 days to produce a dynamic plot on body weight and tumor growth. On Day 20, the mice were sacrificed and the tumors were taken out and weighed. The tumor inhibition rate (%) was calculated after the effect of the medicament based on a tumor inhibition rate of the control group being zero.
as §1

The nature of series [9]: Example 4: body weight of tumor-bearing nude mice. The class given is in vivo, BALB/c-nu nude mice. The procedure:
(§4) Under sterile conditions, the above tumor cells were collected in the logarithmic growth phase. A549 was injected by subcutaneous injection in an amount of 1×10 7/0 2 mL/nude mice (cell viability>90%) into the right subaxillary of the nude mice, and Hep G2 was injected by subcutaneous injection in an amount of 1×10^7/0.2 mL/nude mice (cell viability>90%) into the left subaxillary of the nude mice thus establishing transplated tumor models of lung cancer and liver cancer respectively in nude mice. The administration was carried out from the second day after the inoculation. The experimental group was intragastrically administered at the experimentally designed amount, the negative control group is intragastrically administered with sterile water, and the positive control group was intragastrically administered with Jef. Each mouse was intragastrically administered in 0.4 ml each time and 3 times a day, at 8:00, 14:00 and 20:00. The administrations were successive for 10 days. The day before administration was deemed as Day 0 and the body weight and tumor size of the mice were determined every 5 days to produce a dynamic plot on body weight and tumor growth. On Day 24, the mice were sacrificed and the tumors were taken out and weighed. The tumor inhibition rate (%) was calculated after the effect of the medicament based on a tumor inhibition rate of the control group being zero.
as §1

In series [10] the test system is Hep G2 transplanted tumor (human hepatoma carcinoma cell). Nature of the series: Example 4: TTD on Hep G2 transplanted tumor in nude mice. Particulars: Hep G2, TTD 50 mg/kg/time intragastric, 3 times a day, 10 days, Day 24. The class given is in vivo, BALB/c-nu nude mice. The procedure: as §4, with “The experimental group was intragastrically administered at the experimentally designed amount, the negative control group is intragastrically administered with sterile water, and the positive control group was intragastrically administered with Jef. Each mouse was intragastrically administered in 0.4 ml each time and 3 times a day, at 8:00, 14:00 and 20:00. The administrations were successive for 10 days.” left out, “On Day 24, the mice were sacrificed and the tumors were taken out and weighed.” left out
as §1

For series [11], the system named is A549 transplanted tumor (human non-small cell lung cancer cell line). Nature of the series: Example 4: TTD on A549 transplanted tumor in nude mice. It is filed as in vivo, BALB/c-nu nude mice. The following applies: A549, TTD 50 mg/kg/time intragastric, 3 times a day, 10 days, Day 24; for tumor inhibition rate: control = 0. The procedure: as §4, §1

Where two headings read alike, the source gives them in different places.

On to `CC[C@@]1(O)C[C@H](O[C@H]2C[C@H](N(C)C)[C@H](O[C@H]3C[C@H](O)[C@H](O[C@H]4CCC(=O)[C@H](C)O4)[C@H](C)O3)[C@H](C)O2)c2c(cc3c(c2O)C(=O)c2c(O)cccc2C3=O)[C@H]1C(=O)OC` [Acla A, aclarubicin A], for which, in series [1], the cloning formation inhibited was 65.4%. The “body weight, Final” value in series [2] (Acla A 1 mg/kg/time intragastric, 2 times a day, 14 days, Day 20, Mean ± SD, n=3) came to 18.5 ± 1.10 g. In series [2] (Acla A 1 mg/kg/time intragastric, 2 times a day, 14 days, Mean ± SD, n=3), the “body weight, Initial” value is 21.0 ± 0.23 g. Further, in series [2] (Acla A 1 mg/kg/time, during administration, recovered gradually after termination), the “dynamic variation of the body weight (in words)” value is recorded as “partial reduction in the body weight”. For the same compound, in the series on leukemia mice, the “prolonging the lifetime of the mice” value is on record as 143%. In addition, the viability at 0.03 µg/mL in series [3] (read-out: CV (cell viability)) turned out to be 42.6%. Further, the IC50 in series [3] was determined as 0.03 µg/mL; in series [4] (RPMI-8226, 72 h), 0.035 µg/mL. In addition, the viability at 0.035 µg/mL in series [4] (RPMI-8226, 72 h, read-out: CV (cell viability)) was 42.1%. Further, the “half-life t1/2” value in series [5] (intravenous injection) was 16 to 21 h. Also, in series [5] (oral administration), the bioavailability is 35%. In [5] (oral administration), the “biological half-life t1/2” value was 36.5 h. Further, the “survival rate increased, compared with mice without antibiotics injection” value in series [6] was 150%. For the same compound, the “complete remission rate (CR)” value in series [7] is “up to 70%”. In addition, the “inhibitory effect on lung cancer transplanted tumor (in words)” value in series [8] (A549, Acla A 1 mg/kg/time) is given as “did not exhibit good inhibitory effect”. In addition, in series [8] (A549, Acla A 1 mg/kg/time intragastric, 2 times a day, 14 days, Day 20, Mean ± SD), the Mass of tumor is 0.50 ± 0.19 g. Also, in series [8] (A549, Acla A 1 mg/kg/time intragastric, 2 times a day, 14 days, Day 20, control = 0), the tumor inhibition rate is listed as −51.52%.
Consider `COc1ccc2cc1Oc1ccc(cc1)C[C@H]1c3cc(c(OC)cc3CCN1C)Oc1c(OC)c(OC)cc3c1[C@H](C2)N(C)CC3` [TTD, tetrandrine], for which the “body weight, Final” value in series [9] (TTD 50 mg/kg/time intragastric, 3 times a day, 10 days, Day 24, Mean ± SD, n=3) turned out to be 20.6 ± 1.74 g. Further, in series [9] (TTD 50 mg/kg/time intragastric, 3 times a day, 10 days, Mean ± SD, n=3), the “body weight, Initial” value came out at 21.1 ± 0.25 g. In series [9] (TTD 50 mg/kg/time, during administration, recovered gradually after termination), the “dynamic variation of the body weight (in words)” value is “partial reduction in the body weight”. The viability at 1 µg/mL in [3] (TTD 1 μg/mL, MTT, control = 100%, read-out: CV (cell viability)) worked out at 46.9%. For the same compound, the IC50 in series [3] (single compound, MTT) came out at 1 µg/mL; in series [4] (RPMI 8226, single compound, 72 h, MTT), 0.3 µg/mL. Also, the Mass of tumor stood at 0.53 ± 0.32 g in [10] (Mean ± SD) and 0.23 ± 0.35 g in [11] (Mean ± SD). The tumor inhibition rate is −33.36% in series [10] (control = 0), “up to 38%” in series [11] and 38.02% in series [11] (listed as TTD50).

The term viability denotes a read-out of living cells in per cent, often relative to untreated cells. One may read the bioavailability as the share of a dose that reaches the circulation, judged against a reference dose that is usually intravenous.
